Series [1] is described as follows: Blood kinetics in whole blood after peridural injection in rabbits. Particulars: rabbit. Format: in vivo. On the procedure:
Biodistribution and pharmacokinetics of the liposomes which have incorporated bupivacaine, administered peridurally
The formation of MLVs takes place by adding 3 ml of 0.3M Tris-HCl buffer, pH 8, followed by 5 centrifugations at 5000 g in the same buffer.
The results are expressed as a percentage of the injected dose (ID) in the whole blood.

Series [2] is described as follows: Urinary excretion of radioactivity 2 hours after peridural injection. The series is classed as in vivo. Particulars: rabbit, mean ± standard deviation, n=3. On the procedure:
Radioactivity excreted in the urine (ID×10^2) 2 hours after the peridural injection of [^3 H]Ch-labeled SUV, of MLV which has integrated ^3 H-labeled bupivacaine, or of non-encapsulated bupivacaine. Mean±standard deviation; the number in brackets=the number of animals.

Series [3] in a line: Biodistribution in the liver and heart 4 hours after peridural injection. Conditions: rabbit, mean ± standard deviation, n=3. Format: in vivo. As for the experimental part: 0.2 ml of the centrifugation pellet are administered peridurally to rabbits, under the same conditions as in Example 1.
By way of control, 4.5 mg of bupivacaine for clinical use (Marcaine®-Astra-[…] strength hydrochloride solution) is administered under the same conditions with or without adrenaline, and with the addition of 0.01 mCi of [^3 H]bupivacaine, this combination being present in a total 0.2 ml of solution.
Likewise, by way of control, SUVs without bupivacaine are administered in the course of this study, under the conditions stated in Example 1.
The animals are sacrificed 120 and 240 minutes after the injection, and the organs and tissues are sampled under the same conditions as those of Example 1.
Biodistribution of [^3 H]Ch SUV, of MLVS which have integrated [^3 H]bupivacaine, and of bupivacaine, in the liver and heart 4 hours after the peridural injection (ID×10^2).

The nature of series [4]: Uptake by the nervous tissues after peridural injection. The series is classed as in vivo. Conditions: rabbit, mean ± standard deviation, n=3. The source says:
Mean±standarddeviation; number in brackets=number of animals.

For the next series, the system named is tail of rats. Nature of the series: Analgesic effect: threshold of the pain induced by an electric shock to the tail of rats. Format: in vivo. Conditions: rat tail, point S2.
The test system of another series is motor fibers. Conditions: bupivacaine used today in anesthesia; general knowledge; cited from earlier work.

Consider 1 molecule from patent publication US5244678A, “Pharmaceutical composition containing a local anesthetic and/or centrally acting analgesic encapsulated in liposomes” (Ire-Celltarg S.A., priority 1986, dated 1993).

Entries after “also recorded” stand apart in the source; their conditions may differ.

Experimental for tail of rats: The analgesic effect is measured by the increase in the threshold of the pain induced by an electric shock to the tail of rats.
Lipid film: Egg Pc/Chol, 4:3-60 mg of lipids (equivalent to 43.26 mg of egg Pc and 16.74 mg of Chol)+5 mg of bupivacaine base in lyophilized, liposoluble form. Formation of the liposomes: Suspension of the lipid film in the form of multilamellar liposomes in a 0.3M Tris-HCl buffer, pH 8 (3 ml). The liposomal suspension is centrifuged, and the liposomal pellet is injected as it is (0.5 ml) under the skin, in the rat's tail at a point S2.
The pain threshold is measured by electrical excitation at S2, and then at S1 (S1, situated 5 cm downstream from the injection point, serves for taking a reference with respect to the injection point, and also for measuring the possible diffusion of the product injected at S2).

As for `CCCCN1CCCCC1C(=O)Nc1c(C)cccc1C` (stereo not drawn) [Bupivacaine, bupivacaine], in series [1], the “highest blood level (blood peak)” value was 1.4 % of the injected dose. Further, in series [2], the “Radioactivity excreted in the urine” value was determined as 11.633 ± 0.518 ID×10^2. In series [3], the “Biodistribution in the heart” value turned out to be 2.142 ± 0.301 ID×10^2 and the “Biodistribution in the liver” value is given as 20.477 ± 1.458 ID×10^2. In series [4] (2 hrs), the “Uptake by brachial plexus” value was 0.295 ± 0.048 ID in 1 g×10^3, the “Uptake by cauda equina” value turned out to be 0.485 ± 0.057 ID in 1 g×10^3, the “Uptake by lumbar marrow” value worked out at 0.411 ± 0.094 ID in 1 g×10^3 and the “Uptake by sciatic nerve” value is 0.281 ± 0.026 ID in 1 g×10^3. For the same molecule, in series [4] (4 hrs), the “Uptake by brachial plexus” value turned out to be 1.136 ± 0.008 ID in 1 g×10^3, the “Uptake by cauda equina” value turned out to be 0.132 ± 0.035 ID in 1 g×10^3, the “Uptake by lumbar marrow” value was 0.169 ± 0.046 ID in 1 g×10^3 and the “Uptake by nerve roots” value stood at 0.153 ± 0.023 ID in 1 g×10^3. Moreover, the “Uptake by sciatic nerve” value in series [4] (4 hrs) stood at 0.132 ± 0.028 ID in 1 g×10^3. In the series on tail of rats, the “time of rise of the pain threshold after injection” value is recorded as “less than one hour”. For the same molecule, in the series with motor fibers, the “effect on sensory and motor fibers” value was “blocks the sensory fibers and not the motor fibers; also recorded: affects motor fibers to only a small extent, if at all”.
